≈ marks a conversion by molar mass, not a printed value.
Assay: solubility in water
Type: physicochemical
Conditions: 25° C.
Text: Licarbazepine is indicated to be suitable for the treatment of psychosomatic disturbances, epilepsy, trigeminal neuralgia and cerebral spasticity. […] The mechanisms by which the compounds of the invention exert their anticonvulsant effects are not completely understood, but their activity may be partly due to effects on ion flow across neuronal membranes. However, pharmacokinetics, absorption sites and mechanisms of action of the compounds of the invention are not understood in detail. Licarbazepine is slightly soluble in water (3.2 mg/ml at 25° C.). In view of this physical property, a parenteral formulation of licarbazepine can be prepared as described, e. g., in EP-1 033 988. Despite the merits of the known parenteral dosage form, there remains a need to establish an advantageous oral dosage form of the compounds of the invention. One of the problems that may occur using an oral dosage form is the fluctuation of blood levels of the compounds of the invention on repeated administration, which may be associated with side effects.

solubility: 3200 µg/mL (≈ 12.6 mM)
SMILES: NC(=O)N1c2ccccc2CC(O)c2ccccc21 (racemic) [Licarbazepine, 10,11-dihydro-10-hydroxy-5H-dibenz[b,f]azepine-5-carboxamide]

— patent publication US20070190143A1, “Disintegrating tablets comprising licarb azepine” (priority 2004, published 2007)
